This assay concerns the target T1, human RXFP1 (Homo sapiens, UniProt Q9HBX9).
T1 construct: expressed in transfected cells
T1 sequence (Q9HBX9 1-757): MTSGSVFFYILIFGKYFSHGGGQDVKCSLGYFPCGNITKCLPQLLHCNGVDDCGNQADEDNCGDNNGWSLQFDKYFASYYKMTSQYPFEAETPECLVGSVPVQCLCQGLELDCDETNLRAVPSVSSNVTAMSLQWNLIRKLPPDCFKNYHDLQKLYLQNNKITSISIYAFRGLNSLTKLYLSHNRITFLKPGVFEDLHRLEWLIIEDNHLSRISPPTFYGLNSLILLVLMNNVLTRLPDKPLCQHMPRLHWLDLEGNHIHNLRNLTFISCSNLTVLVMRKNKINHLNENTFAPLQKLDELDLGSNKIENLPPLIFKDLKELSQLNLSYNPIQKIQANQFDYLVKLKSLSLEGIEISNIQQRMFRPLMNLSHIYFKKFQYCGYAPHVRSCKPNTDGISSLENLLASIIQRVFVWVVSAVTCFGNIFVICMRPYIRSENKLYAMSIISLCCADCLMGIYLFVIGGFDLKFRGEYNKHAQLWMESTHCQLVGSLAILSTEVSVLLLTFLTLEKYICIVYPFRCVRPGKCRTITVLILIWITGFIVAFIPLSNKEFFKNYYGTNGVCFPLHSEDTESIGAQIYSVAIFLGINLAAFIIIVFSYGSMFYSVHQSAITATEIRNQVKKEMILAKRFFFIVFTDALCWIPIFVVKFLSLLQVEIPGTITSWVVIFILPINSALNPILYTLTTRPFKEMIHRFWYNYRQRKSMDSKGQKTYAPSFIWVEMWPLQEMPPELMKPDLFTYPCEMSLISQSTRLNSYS
As to the kind of experiment: human RXFP1 (hRXFP1) HEK293 cAMP assay (HTRF). The assay is classed as cell-based. To be noted: HEK293 cells stably expressing human RXFP1, 30 min at room temperature. A digest of the protocol:
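Intracellular cAMP was quantified by HTRF after a 30 min room-temperature exposure of hRXFP1-HEK293 cells (1500/well) to compound at 0.010 nM–50 µM final, 2% DMSO. Buffer was HBSS with 20 mM HEPES, 0.05% BSA and 0.5 mM IBMX; values came from a 4-parameter logistic fit.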
In the case of `CC1Cc2cc(C3=NOC4CC(O)(C(F)(F)F)CC34)cc(C(=O)N[C@H]3[C@@H](C(=O)Nc4ccc(F)c(C(F)(F)F)c4)[C@H]4CC[C@@H]3/C4=C\C3CCCC3)c2O1` (stereo partly drawn) [Example 156, N-[(1R,2R,3S,4R, 7Z)-7-(cyclopentyl-methylidene)-3-{[4-fluoro-3-(trifluoromethyl)phenyl]carbamoyl}bicyclo[2.2.1]heptan-2-yl]-5-[5-hydroxy-5-(trifluoromethyl) 3aH,4H,5H,6H, 6aH-cyclopenta[d][1,2]oxazol-3-yl]-2-methyl-2,3-dihydro-1-benzofuran-7-carboxamide], the concentration for a half-maximal effect (EC50) was 1.3 nM.

On to `COc1ncc(-c2cc([C@H](OC(=O)N3CCS(=O)(=O)CC3)C(F)(F)F)ccc2F)cc1C(=O)N[C@@H]1C2CCC(/C2=C/C2CC2)[C@@H]1C(=O)Nc1ccc(F)c(C(F)(F)F)c1` (stereo partly drawn) [Example 187, (1S)-1-[3-(5-{[(2R,3S,7Z)-7-(cyclopropyl-methylidene)-3-{[4-fluoro-3-(trifluoromethyl)phenyl]carbamoyl}bicyclo[2.2.1]heptan-2-yl]carbamoyl}-6-methoxypyridin-3-yl)-4-fluorophenyl]-2,2,2-trifluoroethyl 1,1-dioxo-1λ^6-thiomorpholine-4-carboxylate], for which the EC50 was found to be 5.3 nM.

Compound `CC1Cc2cc(C3=NOC4CC(CO)CC34)cc(C(=O)N[C@H]3[C@@H](C(=O)N[C@H](C)C4(C)CC4)[C@H]4CC[C@@H]3/C4=C\C3CC3)c2O1` (stereo partly drawn) [Example 153, N-[(1R,2R,3S,4R, 7Z)-7-(cyclopropyl-methylidene)-3-{[(1R)-1-(1-methylcyclopropyl)ethyl]carbamoyl}bicyclo[2.2.1]heptan-2-yl]-5-[5-(hydroxymethyl) 3aH,4H,5H,6H, 6aH-cyclopenta[d][1,2]oxazol-3-yl]-2-methyl-2,3-dihydro-1-benzofuran-7-carboxamide] returned an EC50 of 4.6 nM.

`COc1cnc(-c2cccc(C(=O)O)c2)cc1C(=O)N[C@@H]1C2CCC(/C2=C/C(F)(F)F)[C@@H]1C(=O)Nc1ccc(F)c(C(F)(F)F)c1` (stereo partly drawn) [Example 31, 3-(4-{[(2R,3S,7Z)-3-{[4-fluoro-3-(trifluoromethyl)phenyl]carbamoyl}-7-(2,2,2-trifluoroethylidene)bicyclo[2.2.1]heptan-2-yl]carbamoyl}-5-methoxypyridin-2-yl)benzoic acid] gave a concentration giving a half-maximal response (EC50) of 162 nM.

With `COc1ncc(C2=NOC3CC(CO)CC23)cc1C(=O)N[C@H]1[C@@H](C(=O)N[C@H](C)C2(C)CC(F)(F)C2)[C@H]2CC[C@@H]1/C2=C\C1CC1` (stereo partly drawn) [Example 140, N-((1R,2R,3S,4R,Z)-7-(cyclopropyl-methylene)-3-(((R)-1-(3,3-difluoro-1-methylcyclobutyl)ethyl)carbamoyl)bicyclo[2.2.1]heptan-2-yl)-5-(5-(hydroxymethyl)-3a,5,6,6a-tetrahydro-4H-cyclopenta[d]isoxazol-3-yl)-2-methoxynicotinamide], it took 3.2 nM to reach a half-maximal effect (EC50).

In turn, `COc1cc(C2=NOC3CC(COC(=O)Nc4ccccc4)CC23)cc(C(=O)N[C@@H]2C3CCC(/C3=C/C3CC3)[C@@H]2C(=O)Nc2ccc(F)c(C(F)(F)F)c2)n1` (stereo partly drawn) [Example 158, [3-(2-{[(2R,3S,7Z)-7-(cyclopropyl-methylidene)-3-{[4-fluoro-3-(trifluoromethyl)phenyl]carbamoyl}bicyclo[2.2.1]heptan-2-yl]carbamoyl}-6-methoxypyridin-4-yl)-3aH,4H,5H,6H, 6aH-cyclopenta[d][1,2]oxazol-5-yl]methyl N-phenylcarbamate] registered a concentration for a half-maximal effect (EC50) of 7.8 nM.

In the case of `COc1ncc(-c2cc([C@H](OC(=O)Nc3ccccc3)C(F)(F)F)ccc2F)nc1C(=O)N[C@@H]1C2CCC(/C2=C/C(F)(F)F)[C@@H]1C(=O)Nc1ccc(F)c(C(F)(F)F)c1` (stereo partly drawn) [Example 35, (1S)-2,2,2-trifluoro-1-[4-fluoro-3-(6-{[(2R,3S,7Z)-3-{[4-fluoro-3-(trifluoromethyl)phenyl]carbamoyl}-7-(2,2,2-trifluoroethylidene)bicyclo[2.2.1]heptan-2-yl]carbamoyl}-5-methoxypyrazine-2-yl)phenyl]ethyl N-phenylcarbamate], the concentration giving a half-maximal response (EC50) turned out to be 42 nM.

Regarding `COc1cnc(-c2cc(C(=O)O)ccc2F)nc1C(=O)N[C@@H]1C2CCC(/C2=C/C(F)(F)F)[C@@H]1C(=O)Nc1ccc(F)c(C(F)(F)F)c1` (stereo partly drawn) [Example 32, 4-Fluoro-3-(4-{[(2R,3S,7Z)-3-{[4-fluoro-3-(trifluoromethyl)phenyl]carbamoyl}-7-(2,2,2-trifluoroethylidene)bicyclo[2. 2.1]heptan-2-yl]carbamoyl}-5-methoxypyrimidin-2-yl)benzoic acid], the EC50 was 166 nM.

In turn, `COc1cnc(-c2cc(C(=O)O)ccc2F)cc1C(=O)N[C@@H]1C2CCC(/C2=C/C(F)(F)F)[C@@H]1C(=O)Nc1ccc(F)c(C(F)(F)F)c1` (stereo partly drawn) [Example 30, 4-Fluoro-3-(4-{[(2R,3S,7Z)-3-{[4-fluoro-3-(trifluoromethyl)phenyl]carbamoyl}-7-(2,2,2-trifluorocthylidene)bicyclo[2. 2.1]heptan-2-yl]carbamoyl}-5-methoxypyridin-2-yl)benzoic acid] showed an EC50 of 109 nM.

Compound `CCCc1cnc(OC)c(C(=O)N[C@@H]2C3CCC(/C3=C/C(F)(F)F)[C@@H]2C(=O)Nc2ccc(F)c(C(F)(F)F)c2)c1` (stereo partly drawn) [Example 51, N-[(2R,3S,7Z)-3-{[4-fluoro-3-(trifluoromethyl)phenyl]carbamoyl}-7-(2,2,2-trifluoroethylidene)bicyclo[2.2.1]heptan-2-yl]-2-methoxy-5-propylpyridine-3-carboxamide] yielded a concentration for a half-maximal effect (EC50) of 1300 nM.

`COc1ncc(C2=NOC3CC(CO)CC23)cc1C(=O)N[C@H]1[C@@H](C(=O)N[C@H](C)C2(C)CC2)[C@H]2CC[C@@H]1/C2=C\C1CC1` (stereo partly drawn) [Example 105, N-((1R,2R,3S,4R,Z)-7-(cyclopropyl-methylene)-3-(((R)-1-(1-methylcyclopropyl)ethyl)carbamoyl)bicyclo[2.2.1]heptan-2-yl)-5-(5-(hydroxymethyl)-3a,5,6,6a-tetrahydro-4H-cyclopenta[d]isoxazol-3-yl)-2-methoxynicotinamide] returned an EC50 of 1.2 nM.

With `COc1ncc(C2=NOC3CC(CO)CC23)cc1C(=O)N[C@H]1[C@@H](C(=O)Nc2ccc(F)c(C(F)(F)F)c2)[C@H]2CC[C@@H]1/C2=C\c1csc(C)n1` (stereo partly drawn) [Example 120, N-((1R,2R,3S,4R,Z)-3-((4-fluoro-3-(trifluoromethyl)phenyl)carbamoyl)-7-((2-methylthiazol-4-yl)methylene)bicyclo [2.2.1]heptan-2-yl)-5-(5-(hydroxymethyl)-3a,5,6,6a-tetrahydro-4H-cyclopenta[d]isoxazol-3-yl)-2-methoxynicotinamide], the midpoint of the response, the EC50, lay at 4.8 nM.

In the case of `COc1ncc(-c2cc([C@H](O)C(F)(F)F)ccc2F)cc1C(=O)N[C@H]1[C@@H](C(=O)Nc2ccc(F)c(C(F)(F)F)c2)[C@H]2CC[C@@H]1/C2=C\C1CCCC1` [Example 163, N-[(1R,2R,3S,4R, 7Z)-7-(cyclopentyl-methylidene)-3-{[4-fluoro-3-(trifluoromethyl)phenyl]carbamoyl}bicyclo[2.2.1]heptan-2-yl]-5-{2-fluoro-5-[(1S)-2,2,2-trifluoro-1-hydroxyethyl]phenyl}-2-methoxypyridine-3-carboxamide], the EC50 worked out at 1 nM.

Values taken from patent publication US20250011288A1 (BRISTOL-MYERS SQUIBB COMPANY, priority 2021, published 2025).
